Measurements as given in publication PMC11279404, “Discovery of 1H-benzo[d]imidazole-(halogenated)Benzylidenebenzohydrazide Hybrids as Potential Multi-Kinase Inhibitors” (Pharmaceuticals, 2024).

Key:
[1] = MTT in vitro cytotoxicity, normal WI-38; format: cell-based; settings: human, WI-38 normal lung fibroblast cells, normal cell line, mean ± SD of triplicate
[2] = tested on: HepG2 (hepatocellular carcinoma cell line); experiment: MTT in vitro cytotoxicity, HepG2; format: cell-based, human; settings: for IC50: Homo sapiens, HepG2, MTT, mean ± SD of triplicate; for SI (Selectivity Index) HepG2: IC50 of WI-38 / IC50 of HepG2
[3] = tested on: MCF-7 (mammary gland breast cancer cell line); experiment: MTT in vitro cytotoxicity, MCF-7; format: cell-based, human; settings: for IC50: Homo sapiens, MCF7, MTT, mean ± SD of triplicate; for SI (Selectivity Index) MCF-7: IC50 of WI-38 / IC50 of MCF-7
[4] = tested on: cancer cell lines (HCT-116, HepG2, MCF-7); experiment: MTT in vitro cytotoxicity, summary across the cancer cell line panel; format: cell-based; settings: Homo sapiens; summary over HCT-116, HepG2, MCF-7; read-out: IC50 values across the tested cancer cell lines
Description: The cytotoxic activities of compounds 6a-l were assessed using a standard MTT method, which was performed across three different cancer cell line models, namely human colon cancer (HCT-116), hepatocellular carcinoma (HepG2), mammary gland cancer (MCF-7), and normal (WI-38) cell lines. […] […]. Substitution at the 4-position, as in the case of compounds 6d, 6g, and 6j, also seems beneficial, with fluoro (6j) showing the best results. […]. Overall, the cytotoxicity data provide valuable insights into the structure–activity relationships of the synthesized compounds and can guide further optimization efforts to develop potential anticancer agents with improved potency and selectivity.
. The SI values represent the ratio of the IC50 values for the normal WI-38 cell line compared with the respective cancer cell lines, with higher SI values indicating greater selectivity for the cancer cells over normal cells. […]. The cytotoxic potential of compounds 6a-l was evaluated against a panel of cancer cell lines, including HCT-116, HepG2, and MCF-7, as well as a normal cell line, WI-38, using the reported methodology. The cell lines utilized in this study were obtained from the American Type Culture Collection (ATCC) through the Holding Company for Biological Products and Vaccines (VACSERA) in Cairo, Egypt. These included: 1. A human colon cancer cell line (HCT-116); 2. Hepatocellular carcinoma (HepG2)—a liver cancer cell line; 3. Mammary gland breast cancer (MCF-7); and 4. A human lung fibroblast (WI-38)—a normal cell line.

[5] = tested on: HCT-116 (human colon cancer cell line); experiment: MTT in vitro cytotoxicity, HCT-116; format: cell-based; settings: for IC50: Homo sapiens, HCT-116, MTT, mean ± SD of triplicate; for SI (Selectivity Index) HCT-116: IC50 of WI-38 / IC50 of HCT-116
[6] = molecular target: EGFR (Homo sapiens, UniProt P00533); experiment: In vitro protein kinase inhibition, EGFR
Chain of EGFR (P00533 25-1210): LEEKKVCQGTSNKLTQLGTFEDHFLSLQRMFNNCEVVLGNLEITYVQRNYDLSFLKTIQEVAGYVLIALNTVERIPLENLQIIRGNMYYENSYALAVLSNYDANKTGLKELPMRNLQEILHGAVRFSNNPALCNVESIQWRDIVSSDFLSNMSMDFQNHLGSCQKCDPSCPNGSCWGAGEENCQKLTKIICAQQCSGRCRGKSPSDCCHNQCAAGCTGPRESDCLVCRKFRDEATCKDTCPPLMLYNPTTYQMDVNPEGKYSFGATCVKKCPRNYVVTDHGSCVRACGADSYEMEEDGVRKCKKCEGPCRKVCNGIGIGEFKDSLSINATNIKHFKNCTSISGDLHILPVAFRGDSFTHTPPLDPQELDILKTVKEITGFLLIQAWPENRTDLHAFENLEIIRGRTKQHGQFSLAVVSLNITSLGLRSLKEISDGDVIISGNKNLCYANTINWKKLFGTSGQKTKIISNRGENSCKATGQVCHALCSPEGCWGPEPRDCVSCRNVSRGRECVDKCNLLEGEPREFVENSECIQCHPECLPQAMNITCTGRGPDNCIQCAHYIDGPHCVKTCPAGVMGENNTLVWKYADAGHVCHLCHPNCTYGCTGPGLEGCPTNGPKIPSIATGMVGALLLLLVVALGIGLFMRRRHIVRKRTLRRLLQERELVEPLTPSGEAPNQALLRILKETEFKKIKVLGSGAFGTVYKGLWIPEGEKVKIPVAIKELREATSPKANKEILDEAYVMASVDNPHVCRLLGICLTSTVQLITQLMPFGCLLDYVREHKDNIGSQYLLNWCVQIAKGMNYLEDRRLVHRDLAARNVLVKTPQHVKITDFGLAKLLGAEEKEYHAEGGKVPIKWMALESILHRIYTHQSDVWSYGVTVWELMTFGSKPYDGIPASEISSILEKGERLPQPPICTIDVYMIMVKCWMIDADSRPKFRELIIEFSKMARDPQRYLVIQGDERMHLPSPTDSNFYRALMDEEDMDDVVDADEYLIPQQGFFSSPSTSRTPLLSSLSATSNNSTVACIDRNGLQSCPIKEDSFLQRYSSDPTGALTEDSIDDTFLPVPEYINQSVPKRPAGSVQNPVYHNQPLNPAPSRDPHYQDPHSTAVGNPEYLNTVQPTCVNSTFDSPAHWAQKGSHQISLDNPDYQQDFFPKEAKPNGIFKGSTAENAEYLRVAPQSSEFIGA

[7] = molecular target: Her2 (Homo sapiens, UniProt P04626); experiment: In vitro protein kinase inhibition, Her2
Chain of Her2 (P04626 23-1255): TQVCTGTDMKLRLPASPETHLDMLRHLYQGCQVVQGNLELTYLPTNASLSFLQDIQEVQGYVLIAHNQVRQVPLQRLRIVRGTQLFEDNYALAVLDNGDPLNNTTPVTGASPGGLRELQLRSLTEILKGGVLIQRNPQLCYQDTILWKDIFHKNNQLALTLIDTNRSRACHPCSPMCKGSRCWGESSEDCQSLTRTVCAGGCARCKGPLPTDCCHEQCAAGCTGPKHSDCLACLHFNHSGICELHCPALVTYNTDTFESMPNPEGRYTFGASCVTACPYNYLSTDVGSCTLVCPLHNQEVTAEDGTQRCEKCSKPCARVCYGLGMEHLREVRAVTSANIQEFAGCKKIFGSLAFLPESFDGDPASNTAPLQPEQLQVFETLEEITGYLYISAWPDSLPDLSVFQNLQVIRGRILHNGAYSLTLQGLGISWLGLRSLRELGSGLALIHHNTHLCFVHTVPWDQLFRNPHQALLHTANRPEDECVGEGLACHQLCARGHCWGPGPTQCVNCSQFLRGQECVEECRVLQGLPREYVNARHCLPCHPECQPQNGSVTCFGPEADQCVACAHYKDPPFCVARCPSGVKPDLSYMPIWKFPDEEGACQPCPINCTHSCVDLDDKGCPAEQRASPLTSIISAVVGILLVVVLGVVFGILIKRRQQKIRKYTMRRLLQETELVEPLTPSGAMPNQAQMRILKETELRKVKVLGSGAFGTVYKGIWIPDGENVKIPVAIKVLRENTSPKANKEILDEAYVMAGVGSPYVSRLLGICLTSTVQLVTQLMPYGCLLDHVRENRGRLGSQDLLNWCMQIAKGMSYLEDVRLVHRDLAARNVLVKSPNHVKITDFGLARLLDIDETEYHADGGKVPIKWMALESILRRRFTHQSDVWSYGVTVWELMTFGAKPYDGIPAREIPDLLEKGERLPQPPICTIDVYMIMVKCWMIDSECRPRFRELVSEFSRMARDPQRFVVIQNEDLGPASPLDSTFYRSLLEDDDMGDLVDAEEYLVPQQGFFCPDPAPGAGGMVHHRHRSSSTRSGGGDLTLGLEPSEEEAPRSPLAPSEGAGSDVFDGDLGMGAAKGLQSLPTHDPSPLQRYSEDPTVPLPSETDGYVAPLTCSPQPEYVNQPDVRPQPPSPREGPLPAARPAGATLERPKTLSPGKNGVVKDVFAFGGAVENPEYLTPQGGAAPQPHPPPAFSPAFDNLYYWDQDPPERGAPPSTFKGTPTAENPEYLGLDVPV

[8] = molecular target: CDK2 (Homo sapiens, UniProt P24941); experiment: In vitro protein kinase inhibition, CDK2
[9] = molecular target: T1, AURKC (Homo sapiens, UniProt Q9UQB9); experiment: In vitro protein kinase inhibition, AURKC
T1 sequence (Q9UQB9 1-309): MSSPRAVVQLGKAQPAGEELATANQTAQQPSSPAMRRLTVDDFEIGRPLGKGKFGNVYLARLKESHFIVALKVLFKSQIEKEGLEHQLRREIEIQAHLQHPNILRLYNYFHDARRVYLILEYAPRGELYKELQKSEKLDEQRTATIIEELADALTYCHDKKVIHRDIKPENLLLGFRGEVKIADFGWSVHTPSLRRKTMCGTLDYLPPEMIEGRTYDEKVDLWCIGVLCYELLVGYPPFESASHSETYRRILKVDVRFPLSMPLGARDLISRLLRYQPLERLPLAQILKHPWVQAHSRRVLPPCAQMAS

[10] = molecular target: mTOR (Homo sapiens, UniProt P42345); experiment: In vitro enzyme inhibition, mTOR
[11] = molecular target: VEGFR2 (Homo sapiens, UniProt P35968); experiment: In vitro protein kinase inhibition, VEGFR2; format: biochemical; settings: mean ± SD of triplicate
Chain of VEGFR2 (P35968 20-1356): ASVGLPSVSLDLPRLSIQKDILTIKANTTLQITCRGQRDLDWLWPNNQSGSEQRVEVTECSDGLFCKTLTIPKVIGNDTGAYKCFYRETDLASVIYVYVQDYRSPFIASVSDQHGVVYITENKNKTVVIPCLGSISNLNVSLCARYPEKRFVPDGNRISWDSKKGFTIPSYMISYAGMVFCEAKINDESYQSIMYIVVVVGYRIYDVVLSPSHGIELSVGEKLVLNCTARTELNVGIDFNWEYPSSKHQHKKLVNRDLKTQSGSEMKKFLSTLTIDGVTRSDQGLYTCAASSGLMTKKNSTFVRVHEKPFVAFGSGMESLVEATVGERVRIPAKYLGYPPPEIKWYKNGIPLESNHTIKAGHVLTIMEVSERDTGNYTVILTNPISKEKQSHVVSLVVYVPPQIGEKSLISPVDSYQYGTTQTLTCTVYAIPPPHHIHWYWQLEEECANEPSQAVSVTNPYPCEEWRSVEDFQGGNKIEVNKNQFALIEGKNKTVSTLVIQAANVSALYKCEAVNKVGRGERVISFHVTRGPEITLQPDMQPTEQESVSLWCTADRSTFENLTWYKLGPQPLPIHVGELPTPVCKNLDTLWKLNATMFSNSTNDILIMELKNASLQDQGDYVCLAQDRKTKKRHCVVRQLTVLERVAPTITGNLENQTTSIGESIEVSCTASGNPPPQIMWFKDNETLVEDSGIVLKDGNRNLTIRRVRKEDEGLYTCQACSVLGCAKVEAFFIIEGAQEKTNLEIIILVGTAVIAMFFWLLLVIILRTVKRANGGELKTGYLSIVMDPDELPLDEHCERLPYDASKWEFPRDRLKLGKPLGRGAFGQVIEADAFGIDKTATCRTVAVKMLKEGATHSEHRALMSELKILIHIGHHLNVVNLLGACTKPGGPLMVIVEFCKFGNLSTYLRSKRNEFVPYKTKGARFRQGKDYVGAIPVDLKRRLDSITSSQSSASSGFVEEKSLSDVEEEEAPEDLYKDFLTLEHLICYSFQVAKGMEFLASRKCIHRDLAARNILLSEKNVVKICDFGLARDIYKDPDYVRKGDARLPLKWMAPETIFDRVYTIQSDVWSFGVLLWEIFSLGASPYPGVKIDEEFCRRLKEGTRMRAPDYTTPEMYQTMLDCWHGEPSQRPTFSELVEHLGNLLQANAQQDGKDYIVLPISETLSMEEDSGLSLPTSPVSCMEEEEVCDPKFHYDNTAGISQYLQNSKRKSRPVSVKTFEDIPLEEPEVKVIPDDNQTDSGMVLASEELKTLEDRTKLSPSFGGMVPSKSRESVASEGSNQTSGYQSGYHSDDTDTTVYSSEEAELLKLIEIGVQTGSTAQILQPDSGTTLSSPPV
Excerpt: […]. […] […].

[12] = molecular target: HDAC1 (Homo sapiens, UniProt Q13547); experiment: In vitro enzyme inhibition, HDAC1; format: biochemical; settings: mean ± SD of triplicate; read-out: In Vitro Protein Kinase Inhibition IC50 HDAC1
Chain of HDAC1 (Q13547 whole entry): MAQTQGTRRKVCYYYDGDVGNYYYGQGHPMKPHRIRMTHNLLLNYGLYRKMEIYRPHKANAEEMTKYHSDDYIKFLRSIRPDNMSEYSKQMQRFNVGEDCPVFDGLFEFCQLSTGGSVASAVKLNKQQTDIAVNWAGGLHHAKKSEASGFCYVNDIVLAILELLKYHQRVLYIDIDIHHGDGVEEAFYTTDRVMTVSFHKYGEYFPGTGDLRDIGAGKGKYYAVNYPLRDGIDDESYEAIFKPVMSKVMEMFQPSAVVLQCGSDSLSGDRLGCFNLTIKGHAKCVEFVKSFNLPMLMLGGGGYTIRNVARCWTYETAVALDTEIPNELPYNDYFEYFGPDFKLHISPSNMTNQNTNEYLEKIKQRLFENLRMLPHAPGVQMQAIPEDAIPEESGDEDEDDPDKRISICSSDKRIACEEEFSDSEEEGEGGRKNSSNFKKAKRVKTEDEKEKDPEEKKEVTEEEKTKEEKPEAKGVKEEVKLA

[13] = tested on: caspase-3; experiment: Apoptotic protein level by ELISA, caspase-3; format: cell-based, human; settings: HepG2 cells
Description: (§1) To further elucidate the mechanism by which compound 6i induces cell death, the expression levels of key apoptotic proteins were assessed in the HepG2 cell line. […] Specifically, the levels of the pro-apoptotic proteins caspase-3 and Bax were markedly higher in the compound 6i-treated group compared with the control. […] Additional studies are warranted to elucidate the detailed molecular mechanisms underlying the apoptosis-inducing effects of compound 6i and to assess its therapeutic potential in relevant in vivo models.
(§2) Apoptotic protein levels for compound 6i were determined using an ELISA technique for caspase-3, BAX, and Bcl-2, applying a previously reported method.

[14] = tested on: Bax; experiment: Apoptotic protein level by ELISA, Bax; format: cell-based, human; settings: HepG2 cells
Description: as §1, §2

[15] = tested on: Bcl-2; experiment: Apoptotic protein level by ELISA, Bcl-2; format: cell-based, human; settings: HepG2 cells, ELISA; control 15.668 ± 0.53; mean ± SD of triplicate

Row | SMILES | melting point | IC50 [1] | IC50 [2] | SI (Selectivity Index) HepG2 [2] | IC50 [3] | SI (Selectivity Index) MCF-7 [3] | IC50 [4] | IC50 [5] | SI (Selectivity Index) HCT-116 [5] | further results
1 | O=C(N/N=C/c1ccccc1)c1ccc(NCc2nc3ccccc3[nH]2)cc1 [6a, (E)-4-(((1H-benzo[d]imidazol-2-yl)methyl)amino)-N′-benzylidenebenzohydrazide] | 278 °C | 72.6 ± 4 µM | 31.8 ± 2.2 µM | 2.29 | 26.3 ± 1.9 µM | 2.76 | > 20 µM | 24.6 ± 1.9 µM | 2.95 | –
2 | O=C(N/N=C/c1cccc(Br)c1)c1ccc(NCc2nc3ccccc3[nH]2)cc1 [6c, (E)-4-(((1H-benzo[d]imidazol-2-yl)methyl)amino)-N′-(3-bromobenzylidene)benzohydrazide] | 278 °C | 48.2 ± 2.7 µM | 8.9 ± 0.6 µM | 5.41 | 7.82 ± 0.6 µM | 6.16 | 7.82 to 10.2 µM | 10.2 ± 0.8 µM | 4.72 | IC50 [6]: 0.1252 ± 4.1e-05 µM; IC50 [7]: 0.0556 ± 2.3e-05 µM; IC50 [8]: 0.938 ± 3.9e-05 µM; IC50 [9]: 0.0944 ± 3.6e-05 µM; IC50 [10]: 1.461 ± 5e-05 µM; IC50 [11]: 0.6045 ± 2.2e-05 µM; IC50 [12]: 2.263 ± 7.7e-05 µM
3 | CN[C@@H]1C[C@H]2O[C@@](C)([C@@H]1OC)n1c3ccccc3c3c4c(c5c6ccccc6n2c5c31)C(=O)NC4 [Saurosporine, staurosporine, reference compound] | – | – | – | – | – | – | – | – | – | Protein Expression Caspase-3 ([13]; ELISA, control 99.904 ± 3.88, mean ± SD of triplicate): 541.162 ± 21.02 pg/mL; Protein Expression Caspase-3 (Folds) ([13]; relative to control (1)): 5.4 Folds; Protein Expression Bax ([14]; ELISA, control 71.075 ± 2.762, mean ± SD of triplicate): 386.743 ± 15.03 pg/mL; Protein Expression Bax (Folds) ([14]; relative to control (1)): 5.44 Folds; Protein Expression Bcl-2 [15]: 3.336 ± 0.11 pg/mL
4 | O=C(N/N=C/c1ccccc1Br)c1ccc(NCc2nc3ccccc3[nH]2)cc1 [6b, (E)-4-(((1H-benzo[d]imidazol-2-yl)methyl)amino)-N′-(2-bromobenzylidene)benzohydrazide] | 284 °C | 84.2 ± 4.3 µM | 26.2 ± 1.9 µM | 3.22 | 31.8 ± 2.1 µM | 2.64 | > 20 µM | 42.9 ± 2.5 µM | 1.96 | –
5 | CCN(CC)CCNC(=O)c1c(C)[nH]c(/C=C2\C(=O)Nc3ccc(F)cc32)c1C [Sunitinib, reference compound] | – | 55.6 ± 3.3 µM | 8.38 ± 0.5 µM | – | 24.1 ± 2 µM | – | – | 17.9 ± 1.3 µM | – | –

Continued, in another order:

Row | melting point | SMILES | IC50 [1] | IC50 [2] | SI (Selectivity Index) HepG2 [2] | IC50 [3] | SI (Selectivity Index) MCF-7 [3] | IC50 [4] | IC50 [5] | SI (Selectivity Index) HCT-116 [5] | further results
6 | 160 °C | O=C(N/N=C/c1cc(F)ccc1F)c1ccc(NCc2nc3ccccc3[nH]2)cc1 [6l, (E)-4-(((1H-benzo[d]imidazol-2-yl)methyl)amino)-N′-(2,5-difluorobenzylidene)benzohydrazide] | 77.6 ± 4.1 µM | 20 ± 1.5 µM | 3.88 | 29.8 ± 2 µM | 2.60 | > 20 µM | 39.8 ± 2.2 µM | 1.95 | –
7 | 287 °C | O=C(N/N=C/c1ccc(Br)cc1)c1ccc(NCc2nc3ccccc3[nH]2)cc1 [6d, (E)-4-(((1H-benzo[d]imidazol-2-yl)methyl)amino)-N′-(4-bromobenzylidene)benzohydrazide] | 54.3 ± 3.1 µM | 17.8 ± 1.3 µM | 3.05 | 25.2 ± 1.8 µM | 2.16 | < 30 µM | 30.3 ± 2.1 µM | 1.79 | –
8 | 294 °C | O=C(N/N=C/c1ccc(Cl)cc1Cl)c1ccc(NCc2nc3ccccc3[nH]2)cc1 [6k, (E)-4-(((1H-benzo[d]imidazol-2-yl)methyl)amino)-N′-(2,4-dichlorobenzylidene)benzohydrazide] | > 100 µM | 44.8 ± 2.4 µM | – | 48.6 ± 2.7 µM | – | > 20 µM | 67.8 ± 3.8 µM | – | –
9 | 271 °C | O=C(N/N=C/c1cccc(Cl)c1)c1ccc(NCc2nc3ccccc3[nH]2)cc1 [6f, (E)-4-(((1H-benzo[d]imidazol-2-yl)methyl)amino)-N′-(3-chlorobenzylidene)benzohydrazide] | > 100 µM | 34.8 ± 2.1 µM | – | 45.6 ± 2.5 µM | – | > 20 µM | 63.7 ± 3.5 µM | – | –
10 | 289 °C | O=C(N/N=C/c1ccccc1F)c1ccc(NCc2nc3ccccc3[nH]2)cc1 [6h, (E)-4-(((1H-benzo[d]imidazol-2-yl)methyl)amino)-N′-(2-fluorobenzylidene)benzohydrazide] | 93 ± 4.6 µM | 12.9 ± 1 µM | 7.19 | 16.3 ± 1.2 µM | 5.70 | < 30 µM | 21.5 ± 1.6 µM | 4.33 | IC50 [6]: 0.0732 ± 4e-06 µM; IC50 [7]: 0.0232 ± 1e-06 µM; IC50 [8]: 0.284 ± 1.2e-05 µM; IC50 [9]: 0.011 ± 4e-06 µM; IC50 [10]: 0.413 ± 1.4e-05 µM; IC50 [11]: 0.1945 ± 7e-06 µM; IC50 [12]: 0.1511 ± 5e-06 µM
11 | 291 °C | O=C(N/N=C/c1ccc(F)cc1)c1ccc(NCc2nc3ccccc3[nH]2)cc1 [6j, (E)-4-(((1H-benzo[d]imidazol-2-yl)methyl)amino)-N′-(4-fluorobenzylidene)benzohydrazide] | 39 ± 2.3 µM | 14 ± 1.2 µM | 2.78 | 8.31 ± 0.7 µM | 4.70 | < 30 µM | 18.7 ± 1.4 µM | 2.08 | IC50 [6]: 0.1664 ± 8e-06 µM; IC50 [7]: 0.2047 ± 9e-06 µM; IC50 [8]: 1.448 ± 6.2e-05 µM; IC50 [9]: 0.5894 ± 2.2e-05 µM; IC50 [10]: 1.305 ± 4.4e-05 µM; IC50 [11]: 0.3072 ± 1.1e-05 µM; IC50 [12]: 0.4733 ± 1.6e-05 µM
12 | 290 °C | O=C(N/N=C/c1ccc(Cl)cc1)c1ccc(NCc2nc3ccccc3[nH]2)cc1 [6g, (E)-4-(((1H-benzo[d]imidazol-2-yl)methyl)amino)-N′-(4-chlorobenzylidene)benzohydrazide] | 71.2 ± 3.5 µM | 24.9 ± 1.7 µM | 2.86 | 22.5 ± 1.6 µM | 3.16 | > 20 µM | 35.3 ± 2.3 µM | 2.02 | –
13 | 289 °C | O=C(N/N=C/c1ccccc1Cl)c1ccc(NCc2nc3ccccc3[nH]2)cc1 [6e, (E)-4-(((1H-benzo[d]imidazol-2-yl)methyl)amino)-N′-(2-chlorobenzylidene)benzohydrazide] | 61.9 ± 3.5 µM | 28.8 ± 1.7 µM | 2.15 | 36.2 ± 2.3 µM | 1.71 | > 20 µM | 46.7 ± 2.7 µM | 1.33 | –
